US20230241038A1, “METHOD OF TREATING RNA REPEAT MEDIATED DISEASES WITH RNA REPEAT BINDING COMPOUND” (AMO Pharma Ltd., priority 2021, published 2023)
“Also recorded” adds a separate entry of the source. Read-outs that look alike come from different tables or passages of the source. Each block holds one compound with its values, some of them ahead of it.

Legend:
[1] = system: RNA construct containing CUG repeats (RNA hairpin 1; SEQ ID NO:1); experiment: MicroScale Thermophoresis (MST) fluorescence binding assay, RNA hairpin 1; details: RNA hairpin 1 (CUG repeats)
Experimental: [The procedure below names another target; the source lists this target under the same test.] This direct binding was determined using a MicroScale Thermophoresis (MST) Fluorescence binding assays with Tideglusib and an RNA hairpin containing CUG repeats. […] MBNL1 has a well characterized role in myotonic dystrophy where impaired RNA splicing disrupts muscle development and function.
The method used for the MST fluorescence assay was as follows. A serial dilution of the ligand (Tideglusib) was prepared in a way to match the final buffer conditions in the reaction mix (assay buffer 20 mM HEPES pH 7.4, 0.05% Tween-20). The highest concentration of ligand was 500 μM and the lowest 15.3 nM. 5 μl of each dilution step were mixed with 5 μl of the fluorescent molecule. The final reaction mixture, which was filled in capillaries, contained a respective amount of ligand (max. conc. 250 μM, min. conc. 7.63 nM) and constant 50 nM fluorescent molecule. The samples were analyzed on a Monolith NT. 115 at 25° C., with 40% LED power and 40% Laser power. The fluorescence labeled RNA construct (RNA hairpin 2; produced by Metabion) had the following sequence: […]

[2] = system: ERK (pERK); experiment: Phosphorylated ERK in lymphocytes from pediatric subjects with Autism Spectrum Disorder; type: in vivo, human; details: 12 weeks, titrated 400 mg to 1000 mg oral once per day, versus placebo
[3] = system: phosphorylated Akt (pAkt); experiment: Phosphorylated Akt in lymphocytes from pediatric subjects with Autism Spectrum Disorder; type: in vivo, human; details: 12 weeks, titrated 400 mg to 1000 mg oral once per day, versus placebo, p<0.0001
Experimental: (§1) In order to determine whether the clinical benefit produced by administration of Tideglusib could be related to inhibition of GSK3β, the activity of this kinase in circulating tissues in treated patients was determined. Lymphocyte cell pellets were lysed in 150 μl of cold NP40 Cell Lysis Buffer with protease inhibitors. Total protein of each extract was measured with DC Protein assay Kit according to the manufacturer specifications. For the analysis of GSK3β and related kinases, the commercially available kits AKT Pathway Total Multispecies 7-Plex Panel and the equivalent for the phosphorylated forms for Luminex® Platform from Thermo Fisher Scientific were used. These were the AKT Pathway (Total) 7-Plex Multispecies Panel (#LHO0002M ThermoFisher Scientific) that assays the following signaling proteins: GSK3β, Total IR, IGF-1R, IRS-1, Akt, PRAS40 and p70s6K. The AKT Pathway (Phospho) 7-Plex Multispecies Panel (#LHO0001M ThermoFisher Scientific) assays the following signaling proteins: GSK3β[pS9], IR[pYpY1162/1163], IGF-1R[pYpY1135/1136], IRS-1[[…]], Akt[pS473], PRAS40[[…]] and […]421/424].

[4] = system: phosphorylated Akt (pAkt); experiment: Phosphorylated Akt (pAkt) levels in lymphocytes from treated Congenital Onset DM1 patients; type: in vivo, human; details: 400 mg or 1000 mg per day, six and twelve weeks of treatment
Experimental: as §1

[5] = target: RNA construct containing CUG repeats with interspersed interrupting non CUG repeats (RNA hairpin 3; SEQ ID NO:3); experiment: MicroScale Thermophoresis (MST) fluorescence binding assay, RNA hairpin 3
[6] = system: GSK3β; experiment: GSK3β kinase protein levels in lymphocytes from treated Congenital Onset DM1 patients; type: in vivo, human; details: 400 mg or 1000 mg po per day, six and twelve weeks of treatment
Experimental: Lymphocyte cell pellets were lysed in 150 μl of cold NP40 Cell Lysis Buffer with protease inhibitors. Total protein of each extract was measured with DC Protein assay Kit according to the manufacturer specifications. For the analysis of GSK3β and related kinases, the commercially available kits AKT Pathway Total Multispecies 7-Plex Panel and the equivalent for the phosphorylated forms for Luminex® Platform from Thermo Fisher Scientific were used. These were the AKT Pathway (Total) 7-Plex Multispecies Panel (#LHO0002M ThermoFisher Scientific) that assays the following signaling proteins: GSK3β, Total IR, IGF-1R, IRS-1, Akt, PRAS40 and p70s6K. The AKT Pathway (Phospho) 7-Plex Multispecies Panel (#LHO0001M ThermoFisher Scientific) assays the following signaling proteins: GSK3β[pS9], IR[pYpY1162/1163], IGF-1R[pYpY1135/1136], IRS-1[pS312], Akt[pS473], PRAS40[pT246] and p70s6K[pTpS421/424].

[7] = system: RNA construct containing CAG repeats (RNA hairpin 2; SEQ ID NO:2); experiment: MicroScale Thermophoresis (MST) fluorescence binding assay, RNA hairpin 2; details: RNA hairpin 2 (CAG repeats)
Experimental: The method used for the MST fluorescence assay was as follows. A serial dilution of the ligand (Tideglusib) was prepared in a way to match the final buffer conditions in the reaction mix (assay buffer 20 mM HEPES pH 7.4, 0.05% Tween-20). The highest concentration of ligand was 500 μM and the lowest 15.3 nM. 5 μl of each dilution step were mixed with 5 μl of the fluorescent molecule. The final reaction mixture, which was filled in capillaries, contained a respective amount of ligand (max. conc. 250 μM, min. conc. 7.63 nM) and constant 50 nM fluorescent molecule. The samples were analyzed on a Monolith NT. 115 at 25° C., with 40% LED power and 40% Laser power. The fluorescence labeled RNA construct (RNA hairpin 2; produced by Metabion) had the following sequence:
Binding to other RNA trinucleotide repeats was investigated by repeating the experimental protocol above with an RNA repeat construct containing CAG repeats (RNA hairpin 2).

[8] = system: patients having DM1; experiment: Clinical Global Impression of Improvement in patients having DM1; type: in vivo, human; details: patients having DM1, 400 mg or 1000 mg
[9] = system: JNK (pJNK); experiment: Phosphorylated JNK in lymphocytes from pediatric subjects with Autism Spectrum Disorder; type: in vivo, human; details: 12 weeks, titrated 400 mg to 1000 mg oral once per day, versus placebo

binding to CUG repeat RNA (in words) ([1]; MST): no binding activity
binding to CUG repeat RNA (in words) ([1]; MST, listed as main metabolite of Tideglusib): No reliable binding
Structure (SMILES): O=C(NCc1ccccc1)Nc1cccc2ccccc12 [urea derivative of Tideglusib, 1-benzyl-3-naphthalen-1-yl-urea]

Kd ([5]; RNA hairpin 3, CUG repeats with interrupting non CUG repeats, read-out: KD of binding): 3.2 µM
Kd ([5]; RNA hairpin 3, interspersed non CUG repeats (CCG and CUC), read-out: potency of binding): 3.2 µM
fold less potent binding versus RNA hairpin 1 ([5]; RNA hairpin 3 versus RNA hairpin 1): 162 fold
effect on GSK3β levels in lymphocytes [6]: Neither dose shows any effect
binding to CAG repeat RNA (in words) [7]: No reliable of binding
Kd ([1]; MST, 25° C., read-out: KD of binding): 0.0197 µM
Structure (SMILES): O=c1sn(-c2cccc3ccccc23)c(=O)n1Cc1ccccc1 [Tideglusib, 4-Benzyl-2-naphthalen-1-yl-[1,2,4]thiadiazolidine-3,5-dione]
inhibition of phosphorylation of ERK in lymphocytes [2]: did not inhibit phosphorylation
inhibition of phosphorylation of Akt in lymphocytes [3]: reduces levels of phosphorylation of Akt; also recorded: inhibited phosphorylation of Akt
effect on phosphorylated Akt (pAkt) levels in lymphocytes [4]: not achieved; also recorded: unable overcome the phosphorylation of Akt
effect on phosphorylated Akt (pAkt) levels in lymphocytes ([4]; listed as Compound 1): no effect
effect on GSK3β levels in lymphocytes ([6]; listed as Compound 1): no effect
clinical benefit, Clinical Global Impression of Improvement measurement scale [8]: majority of patients having DM1 treated with Tideglusib showed clinical benefit
inhibition of phosphorylation of JNK in lymphocytes [9]: did not inhibit phosphorylation

Kd ([1]; data not shown, read-out: KD): 31.4 µM
Structure (SMILES): CCn1c(=O)sn(Cc2ccccc2)c1=O [Compound 2, 2-Benzyl-4-ethyl-[1,2,4]thiadiazolidine-3,5-dione]
